Results on three molecules are retold here after the NIST ThermoML archive (doi:10.1016/j.jct.2010.03.002).

Numbers after ± are expanded uncertainties.

For data set [1] the following is noted: 101 kPa, Liquid; for viscosity: Capillary tube (Ostwald / Ubbelohde) method; for mass density: Vibrating tube method.
The nature of data set [2]: xn = mol fraction of the nth substance listed. The conditions noted are these: 101 kPa, Liquid, x1 = 1; for viscosity: Capillary tube (Ostwald / Ubbelohde) method; for mass density: Vibrating tube method.

As to `CCCCCCn1cc[n+](C)c1.[Br-]` [3-hexyl-1-methyl-1H-imidazolium bromide], the viscosity in data set [1] (293.15 K) was determined as 6936 ± 750 mPa·s; in data set [1] (303.15 K), 2239 ± 200 mPa·s; in data set [1] (313.15 K) it was 851.65 ± 56 mPa·s; in data set [1] (323.15 K), 512.14 ± 27 mPa·s; in data set [1] (333.15 K), 350.69 ± 16 mPa·s. For the same molecule, the mass density in data set [1] (293.15 K) is 1227.4 ± 1.7 kg/m3; in data set [1] (303.15 K) it was 1220.1 ± 1.7 kg/m3; in data set [1] (313.15 K), 1213.3 ± 1.7 kg/m3; in data set [1] (323.15 K) it was 1205.7 ± 1.7 kg/m3; in data set [1] (333.15 K) it was 1198.6 ± 1.6 kg/m3.
On to `O` [water] + CCCCCCn1cc[n+](C)c1.[Br-], for which the viscosity is listed as 1.304 ± 0.012 mPa·s in data set [2] (293.15 K); 1.002 ± 0.01 mPa·s in data set [2] (303.15 K); 0.653 ± 0.007 mPa·s in data set [2] (313.15 K); 0.544 ± 0.005 mPa·s in data set [2] (323.15 K); 0.467 ± 0.005 mPa·s in data set [2] (333.15 K). Also, the mass density came to 988 ± 0.1 kg/m3 in data set [2] (323.15 K) and 983.2 ± 0.1 kg/m3 in data set [2] (333.15 K).
For `O` [water], the viscosity in data set [1] (293.15 K) is given as 1.304 ± 0.012 mPa·s; in data set [1] (303.15 K) it was 1.002 ± 0.01 mPa·s; in data set [1] (313.15 K), 0.653 ± 0.007 mPa·s; in data set [1] (323.15 K) it was 0.544 ± 0.005 mPa·s; in data set [1] (333.15 K), 0.467 ± 0.005 mPa·s. The mass density was 988 ± 0.1 kg/m3 in data set [1] (323.15 K) and 983.2 ± 0.1 kg/m3 in data set [1] (333.15 K).
